Assay results published in patent US20150315188A1, “COMPOUNDS AND METHODS FOR TREATMENT OF HYPERTENSION” (MEDIVATION TECHNOLOGIES, INC., priority 2012, published 2015).
Where “and” joins values, the source holds several entries; their conditions need not be identical. Equal entries are not always repeated.

Columns and labels:
Parameters in all cases: purchased Milipore (Millipore)
[1] = target: T1, Human adrenergic α1B receptor (Homo sapiens, UniProt P35368); experiment: Radioligand binding, adrenergic α1B (Protocol Group B); settings: Protocol Group B; for Percentage inhibition of ligand binding, Adrenergic α1B (0.1 μM) / inhibition at 0.1 µM: 0.1 μM compound; for Percentage inhibition of ligand binding, Adrenergic α1B (0.3 μM) / inhibition at 0.3 µM: 0.3 μM compound; for inhibition at 0.1 µM: read-out: Percentage inhibition of ligand binding, Adrenergic α1B (0.1 μM); for inhibition at 0.3 µM: read-out: Percentage inhibition of ligand binding, Adrenergic α1B (0.3 μM)
T1 sequence (P35368 1-520): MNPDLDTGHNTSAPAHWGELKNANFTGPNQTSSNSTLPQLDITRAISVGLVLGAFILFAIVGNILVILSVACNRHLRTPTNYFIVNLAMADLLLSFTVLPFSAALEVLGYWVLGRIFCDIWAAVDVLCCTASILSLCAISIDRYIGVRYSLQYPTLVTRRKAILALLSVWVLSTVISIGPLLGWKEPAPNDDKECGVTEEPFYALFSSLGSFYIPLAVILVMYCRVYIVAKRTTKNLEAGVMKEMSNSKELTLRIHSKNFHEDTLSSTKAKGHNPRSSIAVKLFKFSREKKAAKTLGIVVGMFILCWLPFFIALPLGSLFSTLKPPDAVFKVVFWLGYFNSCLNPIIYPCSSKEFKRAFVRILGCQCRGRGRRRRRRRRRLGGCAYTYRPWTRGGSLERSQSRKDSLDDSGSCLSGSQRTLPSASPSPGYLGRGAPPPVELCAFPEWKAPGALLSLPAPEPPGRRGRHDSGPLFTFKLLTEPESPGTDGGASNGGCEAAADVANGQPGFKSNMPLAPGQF
Description: To evaluate the activity of compounds in radioligand binding assays, Human adrenergic α1B receptor obtained from recombinant cell membrane from Milipore. Binding experiments were carried out in Tris-HCl buffer (50 mM Tris-HCl buffer, pH 7.4, 10 mM Mgcl2, 1 mM EDTA) as recommended by Milipore. Compounds were incubated with 0.3 nM [^3H]Prazosin for 60 min at 25° C. Non-specific binding was estimated in the presence of 10 μM prazosin. Receptor proteins were harvested on 0.33% PEI(poly-ethylenemine) soaked GFC filter mat, the specifically bound [^3H]Prazosin were counted to determine total binding. Compounds were screened at various concentrations, using 1% DMSO as vehicle. percent inhibition of specific binding was determined. Biochemical assay results are presented as the percent Inhibition of specific binding in Table B1b, or estimated Ki values in Table B1c.

[2] = target: T2, Human adrenergic α2B receptor (Homo sapiens, UniProt P18089); experiment: Radioligand binding, adrenergic α2B (Protocol Group B); settings: Protocol Group B; for Percentage inhibition of ligand binding, Adrenergic α2B (10 nM): 0.01 µM; for Percentage inhibition of ligand binding, Adrenergic α2B (30 nM) / inhibition at 0.03 µM: 30 nM compound; for Percentage inhibition of ligand binding, Adrenergic α2B (30 nM): 0.03 µM; for inhibition at 0.03 µM: read-out: Percentage inhibition of ligand binding, Adrenergic α2B (30 nM)
T2 sequence (P18089 1-450): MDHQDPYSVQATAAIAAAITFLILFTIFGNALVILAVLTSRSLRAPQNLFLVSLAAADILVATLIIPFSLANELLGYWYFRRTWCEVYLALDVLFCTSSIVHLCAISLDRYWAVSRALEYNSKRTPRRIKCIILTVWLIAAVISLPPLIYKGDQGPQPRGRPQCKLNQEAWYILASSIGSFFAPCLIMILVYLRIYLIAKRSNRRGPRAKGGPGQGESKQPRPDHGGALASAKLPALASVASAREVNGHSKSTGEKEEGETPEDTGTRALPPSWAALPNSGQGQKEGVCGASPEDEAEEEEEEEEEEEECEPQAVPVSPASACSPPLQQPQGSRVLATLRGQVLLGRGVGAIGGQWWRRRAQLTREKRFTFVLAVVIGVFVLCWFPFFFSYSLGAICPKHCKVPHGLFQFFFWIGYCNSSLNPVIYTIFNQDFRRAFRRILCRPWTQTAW
Description: To evaluate the activity of compounds in radioligand binding assays, Human adrenergic α2B receptor obtained from recombinant cell membrane from Milipore. Binding experiments were carried out in Tris-HCl buffer (50 mM Tris-HCl buffer, pH 7.4, 5 mM Mgcl2, 1 mM Cacl2, 0.2% BSA) as recommended by Milipore. […] Non-specific binding was estimated in the presence of 10 μM Rauwolscine. […] Compounds were screened at various concentrations, using 1% DMSO as vehicle. Biochemical assay results are presented as the percent Inhibition of specific binding in Table B1b, or estimated Ki values in Table B1c.

[3] = target: T3, Human adrenergic α2A receptor (Homo sapiens, UniProt P08913); experiment: Radioligand binding, adrenergic α2A (Protocol Group B); settings: Protocol Group B; for Percentage inhibition of ligand binding, Adrenergic α2A (0.1 μM): 0.1 μM compound; for Percentage inhibition of ligand binding, Adrenergic α2A (0.3 μM) / inhibition at 0.3 µM: 0.3 μM compound; for inhibition at 0.3 µM: read-out: Percentage inhibition of ligand binding, Adrenergic α2A (0.3 μM)
T3 sequence (P08913 1-465): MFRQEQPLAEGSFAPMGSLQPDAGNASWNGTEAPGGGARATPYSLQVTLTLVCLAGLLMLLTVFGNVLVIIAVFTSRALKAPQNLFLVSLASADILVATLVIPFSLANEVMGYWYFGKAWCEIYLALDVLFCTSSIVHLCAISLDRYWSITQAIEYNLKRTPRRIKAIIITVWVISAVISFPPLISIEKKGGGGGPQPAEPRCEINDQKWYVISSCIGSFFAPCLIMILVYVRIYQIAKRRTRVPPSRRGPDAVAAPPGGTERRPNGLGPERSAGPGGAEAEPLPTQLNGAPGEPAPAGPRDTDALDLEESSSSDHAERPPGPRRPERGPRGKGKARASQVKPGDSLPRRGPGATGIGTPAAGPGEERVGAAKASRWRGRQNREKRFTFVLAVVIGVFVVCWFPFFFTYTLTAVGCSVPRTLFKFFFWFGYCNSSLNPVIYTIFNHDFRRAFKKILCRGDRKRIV
Description: To evaluate the activity of compounds in radioligand binding assays, Human adrenergic α2A receptor obtained from recombinant cell membrane from Milipore. Binding experiments were carried out in Tris-HCl buffer (50 mM Tris-HCl buffer, pH 7.4, 5 mM Mgcl2, 1 mM Cacl2, 0.2% BSA) as recommended by Milipore. Compounds were incubated with 2 nM [^3H]MK-912 for 60 min at 25° C. Non-specific binding was estimated in the presence of 10 μM Rauwolscine. Receptor proteins were harvested on 0.33% PEI(poly-ethylenemine) soaked GFC filter mat, the specifically bound [^3H]MK-912 were counted to determine total binding. Compounds were screened at various concentrations, using 1% DMSO as vehicle. percent inhibition of specific binding was determined. Biochemical assay results are presented as the percent Inhibition of specific binding in Table B1b, or estimated Ki values in Table B1c.

Row | Structure (SMILES) | Percentage inhibition of ligand binding, Adrenergic α1B (0.1 μM) [1] | Percentage inhibition of ligand binding, Adrenergic α1B (0.3 μM) [1] | Percentage inhibition of ligand binding, Adrenergic α2B (10 nM) ([2]; 10 nM compound) | Percentage inhibition of ligand binding, Adrenergic α2B (30 nM) [2] | Percentage inhibition of ligand binding, Adrenergic α2B (0.1 μM) ([2]; 0.1 μM compound) | Percentage inhibition of ligand binding, Adrenergic α2A (0.1 μM) [3] | Percentage inhibition of ligand binding, Adrenergic α2A (0.3 μM) [3] | inhibition at 0.1 µM [1] | inhibition at 0.3 µM [1] | inhibition at 0.01 µM ([2]; 10 nM compound, read-out: Percentage inhibition of ligand binding, Adrenergic α2B (10 nM)) | inhibition at 0.03 µM [2] | inhibition at 0.3 µM [3] | inhibition at 0.1 µM ([2]; 0.1 μM compound, read-out: Percentage inhibition of ligand binding, Adrenergic α2B (0.1 μM)) | Ki ([2]; estimated Ki, read-out: Ki α2B)
1 | Cc1ccc2c(c1)c1c(n2CC(OC(N)=O)c2ccncc2)CCN(C)C1 (single isomer, unassigned) [8a] | 18% | 22% | 12% | 21% | 48% | 20% | 14% |  |  |  |  |  |  | 
2 | Cc1ccc2c(c1)c1c(n2CC(OC(N)=O)c2ccncc2)CCN(C)C1 (single isomer, unassigned) [8b] |  |  |  |  | 26% | 7% |  | 9% | 14% | 13% | 27% | 10% |  | 
3 | Cc1ccc2c(c1)c1c(n2CC(C)(O)c2ccncc2)CCN2CCCC12 (single isomer, unassigned) [13c] | 9% | 28% | −1% |  |  | 11% |  |  |  |  | 30% | 21% | 74% | 
4 | Cc1ccc2c(c1)c1c(n2CC(C)(O)c2ccncc2)CCN2CCCC12 (single isomer, unassigned) [13d] | −7% | 9% | 7% | 27% | 76% | 3% | 20% |  |  |  |  |  |  | 
5 | Cc1ccc2c(c1)c1c(n2CC(C)(O)c2cccnc2)CC(CO)N(C)C1 (single isomer, unassigned) [15a] |  |  | 19% | 48% | 68% | 14% | 14% | 17% | 25% |  |  |  |  | 
6 | Cc1ccc2c(c1)c1c(n2CC(C)(O)c2cccnc2)CC(CO)N(C)C1 (single isomer, unassigned) [15b] | 12% | 16% | 6% | −11% | 16% | 1% | 0% |  |  |  |  |  |  | 
7 | Cc1ccc2c(c1)c1c(n2CC(C)(O)c2cccnc2)CCN(C)C1CO (single isomer, unassigned) [16a] | 16% |  | −1% | −14% | 1% | 8% |  |  | 9% |  |  | 9% |  | 
8 | Cc1ccc2c(c1)c1c(n2CC(C)(O)c2cccnc2)CCN(C)C1CO (single isomer, unassigned) [16b] | −3% | 5% | 4% | −11% | 7% | −2% | 10% |  |  |  |  |  |  | 
9 | Cc1ccc2c(c1)c1c(n2CC(O)c2ccncc2)CCN2CCCC12 (single isomer, unassigned) [Compound No. 178a] | 73% |  |  |  |  |  |  |  |  |  |  |  |  | 
10 | Cc1ccc2c(c1)c1c(n2CC(O)c2ccncc2)CCN2CCCC12 (single isomer, unassigned) [Compound No. 178b] | 69% |  |  |  |  | 55% |  |  |  |  |  |  |  | 
11 | Cc1ccc2c(c1)c1c(n2CC(O)c2ccncc2)CCN2CCCC12 (single isomer, unassigned) [Compound No. 178c] | 94% and 96% |  |  |  |  | 35% |  |  |  |  |  |  |  | 
12 | CC(O)(Cn1c2c(c3cc(F)ccc31)C1CCCN1CC2)c1cccnc1 (centres unmarked) [compound 51] |  |  |  |  |  |  |  |  |  |  |  |  |  | 1.58 nM
